Results: patent publication US11401277B2, “Anti-bacterial heterocyclic compounds and their synthesis” (Bugworks Research, Inc., priority 2017, dated 2022)
Converted amounts (≈) assume the structure as drawn. “And” between values parts separate entries of the source, which are not always exact repeats. Equal values may be shown once. Read-outs that look alike come from different tables or passages of the source.

What was measured:
[1] = test system: A. baumanni clinical strains; experiment: Susceptibility (MIC50 and MIC90 determination) studies, clinical strains; assay type: cell-based; settings: CLSI
[2] = test system: K. pneumoniae clinical strains; experiment: as above; assay type: cell-based; settings: CLSI
[3] = test system: P. aurigenosa clinical strains; experiment: as above; assay type: cell-based; settings: CLSI
E. coli DNA gyrase = E. coli DNA gyrase (Escherichia coli, UniProt P0AES4+P0AES6); experiment: biochemical
E. coli topoisomerase IV = E. coli topoisomerase IV (Escherichia coli, UniProt P0AFI2+P20083); experiment: biochemical
[4] = Stability of IV formulation at room temperature; assay type: physicochemical; settings: 10% L-ascorbic acid formulation
E. coli clinical strains = experiment: Susceptibility (MIC50 and MIC90 determination) studies, clinical strains; assay type: cell-based; settings: CLSI
[5] = test system: clinical strains of five Gram-negative bacterial species; experiment: Antibacterial susceptibility studies, overall statement; assay type: cell-based; settings: range over 5 Gram-negative species
From the text: The standard drugs ciprofloxacin and meropenem were used as positive controls in the study.

[6] = test system: K. pneumoniae [ATCC13883]; experiment: Neutropenic Thigh Infection Model in Rat, K. pneumoniae; assay type: in vivo; settings: for MEAN ± SD (Log10 CFU/g thigh) / Mean Log 10 CFU/thigh reduction (wrt 2 h PI control: 5.04 Log10CFU/g thigh) / Log10 CFU/g thigh: i.v., 1 h infusion; for Log10 CFU/g thigh: individual animals, 10 hr post infection
[7] = test system: E. cloacae clinical strains; experiment: Susceptibility (MIC50 and MIC90 determination) studies, clinical strains; assay type: cell-based; settings: CLSI
E. coli [ATCC25922] [8] = experiment: Neutropenic Thigh Infection Model in Rat, E. coli; assay type: in vivo; settings: for MEAN ± SD (Log10 CFU/g thigh) / Mean Log 10 CFU/thigh reduction (wrt 2 h PI control: 5.04 Log10CFU/g thigh) / Log10 CFU/g thigh: i.v., 1 h infusion; for Log10 CFU/g thigh: individual animals, 10 hr post infection
E. coli [ATCC25922] [9] = experiment: Urinary Tract Infection Rat Model (kidneys, bladder); settings: for MEAN ± SD (Log10 CFU/g kidneys) / MEAN ± SD (Log10 CFU/ml Bladder) / Mean Log10CFU/g kidney reduction (wrt 4 h PI control: 4.53 Log10CFU/g kidneys) / Mean Log10 CFU/ml Bladder reduction (wrt 4 h PI control: 5.72 CFU/ml Bladder) / Log10 CFU/g (Left Kidney) / Log10 CFU/g (Right Kidney) / Log10 CFU/ml Bladder: i.v., 1 h infusion; for Log10 CFU/g (Left Kidney) / Log10 CFU/g (Right Kidney) / Log10 CFU/ml Bladder: individual animals, 24 h post infection
[10] = Klebsiella pneumoniae, Kpn clinical strains
[11] = Escherichia coli, E. coli clinical strains

E. coli topoisomerase IV, sequence (P20083 whole entry): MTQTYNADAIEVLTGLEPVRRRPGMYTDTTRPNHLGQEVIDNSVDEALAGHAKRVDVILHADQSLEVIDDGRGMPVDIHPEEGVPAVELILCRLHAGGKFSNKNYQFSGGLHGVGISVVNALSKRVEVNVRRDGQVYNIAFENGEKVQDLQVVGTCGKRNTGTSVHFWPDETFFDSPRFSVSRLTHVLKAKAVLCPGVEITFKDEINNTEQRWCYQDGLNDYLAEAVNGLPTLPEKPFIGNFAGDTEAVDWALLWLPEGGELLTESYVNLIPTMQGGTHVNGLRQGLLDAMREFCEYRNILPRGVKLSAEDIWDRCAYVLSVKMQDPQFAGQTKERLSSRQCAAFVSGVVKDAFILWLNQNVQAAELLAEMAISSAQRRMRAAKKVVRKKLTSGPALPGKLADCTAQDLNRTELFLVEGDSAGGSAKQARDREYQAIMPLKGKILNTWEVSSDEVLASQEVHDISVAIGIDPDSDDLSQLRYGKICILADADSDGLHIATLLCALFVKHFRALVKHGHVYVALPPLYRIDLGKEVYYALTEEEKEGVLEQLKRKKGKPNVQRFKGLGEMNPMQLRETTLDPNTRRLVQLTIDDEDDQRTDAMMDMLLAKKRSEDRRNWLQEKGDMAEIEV
E. coli topoisomerase IV, sequence (P0AFI2 whole entry): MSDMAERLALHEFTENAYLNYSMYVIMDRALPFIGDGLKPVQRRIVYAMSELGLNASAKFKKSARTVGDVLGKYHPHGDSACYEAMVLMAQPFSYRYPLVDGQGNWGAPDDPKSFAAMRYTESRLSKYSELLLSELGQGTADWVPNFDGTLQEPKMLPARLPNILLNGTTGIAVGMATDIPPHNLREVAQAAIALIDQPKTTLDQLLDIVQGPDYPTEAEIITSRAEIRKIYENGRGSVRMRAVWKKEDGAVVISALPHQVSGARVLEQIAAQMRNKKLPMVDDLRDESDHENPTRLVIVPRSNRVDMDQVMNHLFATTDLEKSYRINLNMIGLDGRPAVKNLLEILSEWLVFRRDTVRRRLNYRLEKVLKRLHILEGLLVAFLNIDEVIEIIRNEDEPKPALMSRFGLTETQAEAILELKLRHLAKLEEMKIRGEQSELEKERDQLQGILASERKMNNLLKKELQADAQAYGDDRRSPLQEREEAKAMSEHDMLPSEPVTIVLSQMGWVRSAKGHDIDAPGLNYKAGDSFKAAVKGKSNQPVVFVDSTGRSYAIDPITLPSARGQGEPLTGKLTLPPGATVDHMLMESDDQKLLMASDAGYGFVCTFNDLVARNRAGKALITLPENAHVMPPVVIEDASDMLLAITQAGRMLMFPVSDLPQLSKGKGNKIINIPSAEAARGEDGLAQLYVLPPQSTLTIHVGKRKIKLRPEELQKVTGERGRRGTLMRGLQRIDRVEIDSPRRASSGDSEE
E. coli DNA gyrase, sequence (P0AES4 whole entry, one chain of several): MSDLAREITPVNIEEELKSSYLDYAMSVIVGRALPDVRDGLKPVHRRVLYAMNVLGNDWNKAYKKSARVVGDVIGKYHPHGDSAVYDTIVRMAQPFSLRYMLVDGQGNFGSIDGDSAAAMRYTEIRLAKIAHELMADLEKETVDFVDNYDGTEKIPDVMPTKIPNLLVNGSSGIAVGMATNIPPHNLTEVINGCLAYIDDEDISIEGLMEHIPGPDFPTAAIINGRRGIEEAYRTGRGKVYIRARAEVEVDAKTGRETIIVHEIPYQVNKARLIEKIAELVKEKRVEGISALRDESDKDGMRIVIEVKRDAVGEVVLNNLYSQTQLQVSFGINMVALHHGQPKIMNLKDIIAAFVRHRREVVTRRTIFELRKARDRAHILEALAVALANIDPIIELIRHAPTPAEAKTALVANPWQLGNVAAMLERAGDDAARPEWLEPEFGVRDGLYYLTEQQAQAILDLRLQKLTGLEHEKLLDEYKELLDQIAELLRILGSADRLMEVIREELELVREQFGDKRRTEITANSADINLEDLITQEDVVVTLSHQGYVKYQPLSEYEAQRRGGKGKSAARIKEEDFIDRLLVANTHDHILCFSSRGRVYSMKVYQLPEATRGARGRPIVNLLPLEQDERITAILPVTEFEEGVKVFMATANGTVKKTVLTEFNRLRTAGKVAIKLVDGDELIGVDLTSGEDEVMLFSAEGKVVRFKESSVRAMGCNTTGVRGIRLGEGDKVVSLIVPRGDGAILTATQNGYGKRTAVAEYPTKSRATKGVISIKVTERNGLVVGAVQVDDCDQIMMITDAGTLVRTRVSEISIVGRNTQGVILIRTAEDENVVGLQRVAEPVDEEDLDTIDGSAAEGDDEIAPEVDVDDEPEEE

Compound: Cn1c(=O)ccc2ccc(F)c(OCCNC[C@H]3CN(c4cnc5c(n4)NC(=O)CO5)C(=O)O3)c21 [Compound 2, (S)-6-(5-(((2-((7-fluoro-1-methyl-2-oxo-1,2-dihydroquinolin-8-yl)oxy)ethyl)amino)methyl)-2-oxooxazolidin-3-yl)-2H-pyrazino[2,3-b][1,4]oxazin-3(4H)-one]
- MIC50 ([1]; Aba clinical strains): 0.06 µg/mL (≈ 0.124 µM)
- MIC90 ([1]; Aba clinical strains): 0.25 µg/mL (≈ 0.516 µM)
- Minimum (MIC) ([1]; Aba clinical strains, MIC50/MIC90 in μg/ml, in µg/mL): 0.03
- MIC ATCC19606 ([1]; Aba reference strain ATCC19606, MIC50/MIC90 in μg/ml): 0.06 µg/mL (≈ 0.124 µM)
- MIC50 [2, 10]: 0.125 µg/mL (≈ 0.258 µM)
- MIC90 [2, 10]: 0.5 µg/mL (≈ 1.03 µM)
- Minimum (MIC) ([2]; Kpn clinical strains, MIC50/MIC90 in μg/ml): 0.06 µg/mL
- MIC ATCC13883 ([2]; Kpn reference strain ATCC13883, MIC50/MIC90 in μg/ml): 0.06 µg/mL (≈ 0.124 µM)
- MIC50 ([3]; Pae clinical strains): 1 µg/mL (≈ 2.06 µM)
- MIC90 ([3]; Pae clinical strains): 1 µg/mL (≈ 2.06 µM)
- Minimum (MIC) ([3]; Pae clinical strains, MIC50/MIC90 in μg/ml): 0.031 µg/mL
- MIC ATCC27853 ([3]; Pae reference strain ATCC27853, MIC50/MIC90 in μg/ml): 0.5 µg/mL (≈ 1.03 µM)
- IC50 (E. coli DNA gyrase; gel based supercoiling assay, read-out: E. coli DNA Gyrase IC50): 12 nM
- IC50 (E. coli DNA gyrase; unit inferred, read-out: IC50 E. coli DNA Gyrase): ≤ 50 nM
- IC50 (E. coli topoisomerase IV; gel based decatenation assay, read-out: E. coli Topo IV IC50): 45 nM
- IC50 (E. coli topoisomerase IV; unit inferred, read-out: IC50 E. coli Topo IV): ≤ 50 nM
- IV formulation stable at room temperature [4]: more than 24 hours
- Minimum (MIC) (E. coli clinical strains; E. coli clinical strains, MIC50/MIC90 in μg/ml): 0.03 µg/mL
- MIC ATCC25922 (E. coli clinical strains; E. coli reference strain ATCC25922, MIC50/MIC90 in μg/ml): 0.03 µg/mL (≈ 0.0619 µM)
- MIC50 (E. coli clinical strains; [11]): 0.25 µg/mL (≈ 0.516 µM)
- MIC90 (E. coli clinical strains; [11]): 0.25 µg/mL (≈ 0.516 µM)
- MIC90 [5]: 0.25 to 1 µg/mL (≈ 0.516 to 2.06 µM)
- MEAN ± SD (Log10 CFU/g thigh) ([6]; 3 mg/kg): 3.91 ± 0.04 Log10 CFU/g thigh
- Mean Log 10 CFU/thigh reduction (wrt 2 h PI control: 5.04 Log10CFU/g thigh) ([6]; 3 mg/kg): 1.13 Log 10 CFU/thigh
- Log10 CFU/g thigh ([6]; 3 mg/kg): 3.95 Log10 CFU/g thigh and 3.87 Log10 CFU/g thigh and 3.91 Log10 CFU/g thigh
- MEAN ± SD (Log10 CFU/g thigh) ([6]; 10 mg/kg): 3.61 ± 0.31 Log10 CFU/g thigh
- Mean Log 10 CFU/thigh reduction (wrt 2 h PI control: 5.04 Log10CFU/g thigh) ([6]; 10 mg/kg): 1.43 Log 10 CFU/thigh
- Log10 CFU/g thigh ([6]; 10 mg/kg): 3.74 Log10 CFU/g thigh and 3.26 Log10 CFU/g thigh and 3.84 Log10 CFU/g thigh
- efficacy with respect to 2 h Post Infection (PI) control (in words) ([6]; 3, 10 and 30 mg/kg, rat thigh K. pneumoniae): significant dose dependent bactericidal efficacy
- Minimum (MIC) ([7]; MIC50/MIC90 in μg/ml): 0.03 µg/mL
- MIC50 ([7]; Enterobacter cloacae): 0.125 µg/mL (≈ 0.258 µM)
- MIC90 ([7]; Enterobacter cloacae): 0.25 µg/mL (≈ 0.516 µM)
- MEAN ± SD (Log10 CFU/g thigh) (E. coli [ATCC25922] [8]; 3 mg/kg): 5.08 ± 0.39 Log10 CFU/g thigh
- Mean Log 10 CFU/thigh reduction (wrt 2 h PI control: 5.04 Log10CFU/g thigh) (E. coli [ATCC25922] [8]; 3 mg/kg): 0.77 Log 10 CFU/thigh
- Log10 CFU/g thigh (E. coli [ATCC25922] [8]; 3 mg/kg): 5.37 Log10 CFU/g thigh and 4.64 Log10 CFU/g thigh and 5.23 Log10 CFU/g thigh
- MEAN ± SD (Log10 CFU/g thigh) (E. coli [ATCC25922] [8]; 10 mg/kg): 4.41 ± 0.18 Log10 CFU/g thigh
- Mean Log 10 CFU/thigh reduction (wrt 2 h PI control: 5.04 Log10CFU/g thigh) (E. coli [ATCC25922] [8]; 10 mg/kg): 1.44 Log 10 CFU/thigh
- Log10 CFU/g thigh (E. coli [ATCC25922] [8]; 10 mg/kg): 4.44 Log10 CFU/g thigh and 4.57 Log10 CFU/g thigh and 4.21 Log10 CFU/g thigh
- MEAN ± SD (Log10 CFU/g thigh) (E. coli [ATCC25922] [8]; 30 mg/kg): 2.83 ± 0.35 Log10 CFU/g thigh
- Mean Log 10 CFU/thigh reduction (wrt 2 h PI control: 5.04 Log10CFU/g thigh) (E. coli [ATCC25922] [8]; 30 mg/kg): 3.02 Log 10 CFU/thigh
- Log10 CFU/g thigh (E. coli [ATCC25922] [8]; 30 mg/kg): 2.66 Log10 CFU/g thigh and 2.6 Log10 CFU/g thigh and 3.24 Log10 CFU/g thigh
- efficacy with respect to 2 h Post Infection (PI) control (in words) (E. coli [ATCC25922] [8]; 3, 10 and 30 mg/kg, rat thigh E. coli): significant dose dependent bactericidal efficacy
- effect when compared to the 4 h PI control (in words) (E. coli [ATCC25922] [9]; 3 mg/kg): bacteriostatic
- MEAN ± SD (Log10 CFU/g kidneys) (E. coli [ATCC25922] [9]; 3 mg/kg): 5.13 ± 0.28 Log10 CFU/g kidneys
- MEAN ± SD (Log10 CFU/ml Bladder) (E. coli [ATCC25922] [9]; 3 mg/kg): 5.89 ± 0.4 Log10 CFU/ml Bladder
- Mean Log10CFU/g kidney reduction (wrt 4 h PI control: 4.53 Log10CFU/g kidneys) (E. coli [ATCC25922] [9]; 3 mg/kg): −0.60 Log10CFU/g kidney
- Mean Log10 CFU/ml Bladder reduction (wrt 4 h PI control: 5.72 CFU/ml Bladder) (E. coli [ATCC25922] [9]; 3 mg/kg): −0.17 Log10 CFU/ml Bladder
- Log10 CFU/g (Left Kidney) (E. coli [ATCC25922] [9]; 3 mg/kg): 5.39 Log10 CFU/g and 5.17 Log10 CFU/g and 5.24 Log10 CFU/g
- Log10 CFU/g (Right Kidney) (E. coli [ATCC25922] [9]; 3 mg/kg): 4.68 Log10 CFU/g and 4.90 Log10 CFU/g and 5.39 Log10 CFU/g
- Log10 CFU/ml Bladder (E. coli [ATCC25922] [9]; 3 mg/kg): 5.43 Log10 CFU/ml Bladder and 6.16 Log10 CFU/ml Bladder and 6.08 Log10 CFU/ml Bladder
- MEAN ± SD (Log10 CFU/g kidneys) (E. coli [ATCC25922] [9]; 10 mg/kg): 3.95 ± 0.33 Log10 CFU/g kidneys
- MEAN ± SD (Log10 CFU/ml Bladder) (E. coli [ATCC25922] [9]; 10 mg/kg): 4.8 ± 0.2 Log10 CFU/ml Bladder
- Mean Log10CFU/g kidney reduction (wrt 4 h PI control: 4.53 Log10CFU/g kidneys) (E. coli [ATCC25922] [9]; 10 mg/kg): 0.58 Log10CFU/g kidney
- Mean Log10 CFU/ml Bladder reduction (wrt 4 h PI control: 5.72 CFU/ml Bladder) (E. coli [ATCC25922] [9]; 10 mg/kg): 0.92 Log10 CFU/ml Bladder
- Log10 CFU/g (Left Kidney) (E. coli [ATCC25922] [9]; 10 mg/kg): 4.12 Log10 CFU/g and 3.78 Log10 CFU/g and 4.46 Log10 CFU/g
- Log10 CFU/g (Right Kidney) (E. coli [ATCC25922] [9]; 10 mg/kg): 4.11 Log10 CFU/g and 3.65 Log10 CFU/g and 3.61 Log10 CFU/g
- Log10 CFU/ml Bladder (E. coli [ATCC25922] [9]; 10 mg/kg): 5.02 Log10 CFU/ml Bladder and 4.61 Log10 CFU/ml Bladder and 4.76 Log10 CFU/ml Bladder
- MEAN ± SD (Log10 CFU/g kidneys) (E. coli [ATCC25922] [9]; 30 mg/kg): 2.91 ± 0.31 Log10 CFU/g kidneys
- MEAN ± SD (Log10 CFU/ml Bladder) (E. coli [ATCC25922] [9]; 30 mg/kg): 3.89 ± 0.3 Log10 CFU/ml Bladder
- Mean Log10CFU/g kidney reduction (wrt 4 h PI control: 4.53 Log10CFU/g kidneys) (E. coli [ATCC25922] [9]; 30 mg/kg): 1.62 Log10CFU/g kidney
- Mean Log10 CFU/ml Bladder reduction (wrt 4 h PI control: 5.72 CFU/ml Bladder) (E. coli [ATCC25922] [9]; 30 mg/kg): 1.83 Log10 CFU/ml Bladder
